Measured values reported in patent US6996429B2, “Apparatus and method for detecting flinch response to nociceptive agents” (Regents of the Univeristy of California, San Diego, priority 2001, dated 2006).
“Also recorded” adds a separate entry of the source. Where two headings read alike, the source gives them in different places.

What was measured:
rat hind paw = settings: for Cumulative flinching behavior (Mean ± SD) Phase I / Cumulative flinching behavior (Mean ± SD) Phase II / Cumulative flinching behavior (Mean ± SD) Phase IIA / Cumulative flinching behavior (Mean ± SD) Phase IIB: N 12
[1] = tested on: formalin induced flinching in the rat; test: Effects of systemic and spinal drugs on formalin evoked flinching behavior (automated formalin test); format: in vivo
Procedure: To examine the effects of a drug on flinching behavior, rats received intraperitoneal or intrathecal injections of the drug. Intraperitoneal injections were delivered in volumes of 0.5 ml/kg.
Solutions were prepared fresh daily.
The percent inhibition is computed by dividing the response of each animal in a given group by the respective vehicle control group and multiplying by 100.
5. Test for intrathecal and intraperitoneal drugs on flinch behavior. […] Dose response curves of each agent were generated to relate drug effect to paw flinch and for comparison with previously reported data.

[2] = Formalin, 0.5% vs. Formalin, 2.5%
[3] = No Injection vs. Formalin, 2.5%

Compound: C=O [Formalin]
- flinching behavior versus formalin concentration (rat hind paw; 0.5%/50 μL to 5.0%/50 μL, all phases, compared to saline, 1-way ANOVA p<0.002): concentration-related increase in flinching behavior
- peak flinch rate Phase I (rat hind paw; 100 male Sprague Dawly rats, Phase I): ~50 flinches/min
- peak flinch rate Phase II (rat hind paw; 100 male Sprague Dawly rats, Phase II): ~37 flinches/min
- mean cumulative flinches (±SEM) Phase I (rat hind paw; 100 male rats, Phase I (0–9 min)): 203±9
- mean cumulative flinches (±SEM) Phase II (rat hind paw; 100 male rats, Phase II): 1058±39
- mean cumulative flinches (±SEM) Phase IIA (rat hind paw; 100 male rats, Phase IIA (10–40 min)): 792±27
- mean cumulative flinches (±SEM) Phase IIB (rat hind paw; 100 male rats, Phase IIB (41–60 min)): 266±16
- Post hoc group comparison Phase I (rat hind paw; Formalin, 0.5% vs. Formalin, 2.5%, Phase I): S (S = Significant difference between groups, p < 0.05, Tukey/Kramer post hoc test.)
- Post hoc group comparison Phase II (rat hind paw; Formalin, 0.5% vs. Formalin, 2.5%, Phase II): S (S = Significant difference between groups, p < 0.05, Tukey/Kramer post hoc test.)
- Post hoc group comparison Phase IIA (rat hind paw; [2]): S (S = Significant difference between groups, p < 0.05, Tukey/Kramer post hoc test.)
- Post hoc group comparison Phase IIB (rat hind paw; [2]): S (S = Significant difference between groups, p < 0.05, Tukey/Kramer post hoc test.)
- Post hoc group comparison Phase I (rat hind paw; Formalin, 0.5% vs. Formalin, 5.0%, Phase I): S (S = Significant difference between groups, p < 0.05, Tukey/Kramer post hoc test.)
- Post hoc group comparison Phase II (rat hind paw; Formalin, 0.5% vs. Formalin, 5.0%, Phase II): S (S = Significant difference between groups, p < 0.05, Tukey/Kramer post hoc test.)
- Post hoc group comparison Phase IIA (rat hind paw; Formalin, 0.5% vs. Formalin, 5.0%): S (S = Significant difference between groups, p < 0.05, Tukey/Kramer post hoc test.)
- Cumulative flinching behavior (Mean ± SD) Phase I (rat hind paw; Formalin, 0.5%, Phase I): 127 ± 66
- Cumulative flinching behavior (Mean ± SD) Phase II (rat hind paw; Formalin, 0.5%, Phase II): 400 ± 185
- Cumulative flinching behavior (Mean ± SD) Phase IIA (rat hind paw; Formalin, 0.5%): 301 ± 169
- Cumulative flinching behavior (Mean ± SD) Phase IIB (rat hind paw; Formalin, 0.5%): 100 ± 79
- Post hoc group comparison Phase II (rat hind paw; Formalin, 1.0% vs. Formalin, 2.5%, Phase II): S (S = Significant difference between groups, p < 0.05, Tukey/Kramer post hoc test.)
- Cumulative flinching behavior (Mean ± SD) Phase I (rat hind paw; Formalin, 1.0%, Phase I): 171 ± 55
- Cumulative flinching behavior (Mean ± SD) Phase II (rat hind paw; Formalin, 1.0%, Phase II): 613 ± 265
- Cumulative flinching behavior (Mean ± SD) Phase IIA (rat hind paw; Formalin, 1.0%): 495 ± 211
- Cumulative flinching behavior (Mean ± SD) Phase IIB (rat hind paw; Formalin, 1.0%): 118 ± 100
- Cumulative flinching behavior (Mean ± SD) Phase I (rat hind paw; Formalin, 2.5%, Phase I): 214 ± 75
- Cumulative flinching behavior (Mean ± SD) Phase II (rat hind paw; Formalin, 2.5%, Phase II): 898 ± 266
- Cumulative flinching behavior (Mean ± SD) Phase IIA (rat hind paw; Formalin, 2.5%): 662 ± 210
- Cumulative flinching behavior (Mean ± SD) Phase IIB (rat hind paw; Formalin, 2.5%): 236 ± 148
- Cumulative flinching behavior (Mean ± SD) Phase I (rat hind paw; Formalin, 5.0%, Phase I): 230 ± 84
- Cumulative flinching behavior (Mean ± SD) Phase II (rat hind paw; Formalin, 5.0%, Phase II): 811 ± 194
- Cumulative flinching behavior (Mean ± SD) Phase IIA (rat hind paw; Formalin, 5.0%): 659 ± 131
- Cumulative flinching behavior (Mean ± SD) Phase IIB (rat hind paw; Formalin, 5.0%): 152 ± 88
- Post hoc group comparison Phase II (rat hind paw; No Injection vs. Formalin, 1.0%, Phase II): S (S = Significant difference between groups, p < 0.05, Tukey/Kramer post hoc test.)
- Post hoc group comparison Phase IIA (rat hind paw; No Injection vs. Formalin, 1.0%): S (S = Significant difference between groups, p < 0.05, Tukey/Kramer post hoc test.)
- Post hoc group comparison Phase I (rat hind paw; No Injection vs. Formalin, 2.5%, Phase I): S (S = Significant difference between groups, p < 0.05, Tukey/Kramer post hoc test.)
- Post hoc group comparison Phase II (rat hind paw; No Injection vs. Formalin, 2.5%, Phase II): S (S = Significant difference between groups, p < 0.05, Tukey/Kramer post hoc test.)
- Post hoc group comparison Phase IIA (rat hind paw; [3]): S (S = Significant difference between groups, p < 0.05, Tukey/Kramer post hoc test.)
- Post hoc group comparison Phase IIB (rat hind paw; [3]): S (S = Significant difference between groups, p < 0.05, Tukey/Kramer post hoc test.)
- Post hoc group comparison Phase I (rat hind paw; No Injection vs. Formalin, 5.0%, Phase I): S (S = Significant difference between groups, p < 0.05, Tukey/Kramer post hoc test.)
- Post hoc group comparison Phase II (rat hind paw; No Injection vs. Formalin, 5.0%, Phase II): S (S = Significant difference between groups, p < 0.05, Tukey/Kramer post hoc test.)
- Post hoc group comparison Phase IIA (rat hind paw; No Injection vs. Formalin, 5.0%): S (S = Significant difference between groups, p < 0.05, Tukey/Kramer post hoc test.)
- Post hoc group comparison Phase I (rat hind paw; Saline vs. Formalin, 1.0%, Phase I): S (S = Significant difference between groups, p < 0.05, Tukey/Kramer post hoc test.)
- Post hoc group comparison Phase II (rat hind paw; Saline vs. Formalin, 1.0%, Phase II): S (S = Significant difference between groups, p < 0.05, Tukey/Kramer post hoc test.)
- Post hoc group comparison Phase I (rat hind paw; Saline vs. Formalin, 2.5%, Phase I): S (S = Significant difference between groups, p < 0.05, Tukey/Kramer post hoc test.)
- Post hoc group comparison Phase II (rat hind paw; Saline vs. Formalin, 2.5%, Phase II): S (S = Significant difference between groups, p < 0.05, Tukey/Kramer post hoc test.)
- Post hoc group comparison Phase IIA (rat hind paw; Saline vs. Formalin, 2.5%): S (S = Significant difference between groups, p < 0.05, Tukey/Kramer post hoc test.)
- Post hoc group comparison Phase IIB (rat hind paw; Saline vs. Formalin, 2.5%): S (S = Significant difference between groups, p < 0.05, Tukey/Kramer post hoc test.)
- Post hoc group comparison Phase I (rat hind paw; Saline vs. Formalin, 5.0%, Phase I): S (S = Significant difference between groups, p < 0.05, Tukey/Kramer post hoc test.)
- Post hoc group comparison Phase II (rat hind paw; Saline vs. Formalin, 5.0%, Phase II): S (S = Significant difference between groups, p < 0.05, Tukey/Kramer post hoc test.)
- Post hoc group comparison Phase IIA (rat hind paw; Saline vs. Formalin, 5.0%): S (S = Significant difference between groups, p < 0.05, Tukey/Kramer post hoc test.)
- formalin concentration at which the maximum (plateau) of flinching was observed (rat hind paw; range 0.5 to 5%): 2.5%

Compound: C[C@]12N[C@H](Cc3ccccc31)c1ccccc12 [MK801]
- ED50 Phase II (Mean and 95% confidence intervals) ([1]; IT (intrathecal), Phase II (10–60 min), from % MPE dose effect curves): 9.5 (87-1.0) μg
- ED50 Phase IIA (Mean and 95% confidence intervals) ([1]; IT (intrathecal), Phase IIA (10–40 min), from % MPE dose effect curves): 7.3 (43-1.2) μg
- effect on the flinching response ([1]; intrathecal injection): potent dose dependent reduction in Phase II but not Phase I
- effect on the flinching response ([1]; systemic (intraperitoneal) injection): potent dose dependent reduction in Phase II but not Phase I
- flinching behavior at the lowest doses ([1]; systemic delivery, lowest doses): apparent increase in flinching behavior at the lowest doses

Compound: CN1CC[C@]23c4c5ccc(O)c4O[C@H]2[C@@H](O)C=C[C@H]3[C@H]1C5.O=S(=O)(O)O [Morphine, morphine sulfate]
- effect on the flinching response ([1]; intrathecal injection, sulfate): potent dose dependent reduction of all phases of the flinching response; also recorded: dose-dependent reduction in all phases of the response to formalin
- effect on the flinching response ([1]; systemic (intraperitoneal) injection, sulfate): potent dose dependent reduction of all phases of the flinching response; also recorded: dose-dependent reduction in all phases of the response to formalin
